Patent US9969742B2, “Imidazotriazinone compounds” (Ironwood Pharmaceuticals, Inc., priority 2012, dated 2018)
Like-named read-outs stand apart in the source and are kept apart here.

What was measured:
Assay type in all cases: biochemical
[1] = target: T1, PDE9A2 (Homo sapiens, UniProt O76083); experiment: Phosphodiesterase enzyme screening assay, PDE9A2
T1 construct: purchased Reaction Biology Corporation, Malvern, Pa
Outline: (§1)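 Human PDE isoforms were incubated 1 h at room temperature with 4.0 μM fluorescent cGMP substrate in 100 mM HEPES pH 7.5, 5 mM MgCl2, 1 mM DTT, 0.003% Brij. EDTA stop buffer ended reactions, and substrate and 5′-GMP product were separated by microfluidic electrophoretic mobility shift with laser-induced fluorescence. Inhibition was calculated against control wells.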

[2] = target: T2, PDE1B (Homo sapiens, UniProt Q01064); experiment: Phosphodiesterase enzyme screening assay, PDE1B
T2 construct: purchased Reaction Biology Corporation, Malvern, Pa
Outline: as §1

[3] = target: T3, PDE1A (Homo sapiens, UniProt P54750); experiment: Phosphodiesterase enzyme screening assay, PDE1A
T3 construct: purchased Reaction Biology Corporation, Malvern, Pa
Outline: as §1

[4] = 4.0 μM cGMP substrate, 1 hour at R.T., read-out: Band (PDE9A2 IC50)
[5] = Table 1, 10 concentrations, 4.0 μM cGMP substrate, 1 hour at R.T., read-out: Band (PDE9A2 IC50)
[6] = Table 1, ratio of IC50 values, value greater than 1 indicates greater selectivity for PDE9A2

T3 sequence (P54750 whole entry): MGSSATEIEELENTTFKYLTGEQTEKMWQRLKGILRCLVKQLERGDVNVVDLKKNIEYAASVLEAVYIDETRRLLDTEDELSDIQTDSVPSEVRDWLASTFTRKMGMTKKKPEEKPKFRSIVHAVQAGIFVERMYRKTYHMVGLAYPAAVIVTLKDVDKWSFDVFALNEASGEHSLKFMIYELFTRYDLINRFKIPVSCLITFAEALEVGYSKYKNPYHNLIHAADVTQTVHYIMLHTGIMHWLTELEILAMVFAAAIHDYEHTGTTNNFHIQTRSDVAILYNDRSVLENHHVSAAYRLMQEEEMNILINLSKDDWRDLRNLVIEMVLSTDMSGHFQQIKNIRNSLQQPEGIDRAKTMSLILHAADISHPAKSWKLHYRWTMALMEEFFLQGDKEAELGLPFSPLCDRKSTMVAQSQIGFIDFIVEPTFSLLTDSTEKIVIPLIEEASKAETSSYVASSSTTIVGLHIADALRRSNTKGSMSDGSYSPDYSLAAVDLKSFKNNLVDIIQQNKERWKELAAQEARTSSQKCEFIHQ
T1 sequence (O76083 1-533 isoform O76083-2): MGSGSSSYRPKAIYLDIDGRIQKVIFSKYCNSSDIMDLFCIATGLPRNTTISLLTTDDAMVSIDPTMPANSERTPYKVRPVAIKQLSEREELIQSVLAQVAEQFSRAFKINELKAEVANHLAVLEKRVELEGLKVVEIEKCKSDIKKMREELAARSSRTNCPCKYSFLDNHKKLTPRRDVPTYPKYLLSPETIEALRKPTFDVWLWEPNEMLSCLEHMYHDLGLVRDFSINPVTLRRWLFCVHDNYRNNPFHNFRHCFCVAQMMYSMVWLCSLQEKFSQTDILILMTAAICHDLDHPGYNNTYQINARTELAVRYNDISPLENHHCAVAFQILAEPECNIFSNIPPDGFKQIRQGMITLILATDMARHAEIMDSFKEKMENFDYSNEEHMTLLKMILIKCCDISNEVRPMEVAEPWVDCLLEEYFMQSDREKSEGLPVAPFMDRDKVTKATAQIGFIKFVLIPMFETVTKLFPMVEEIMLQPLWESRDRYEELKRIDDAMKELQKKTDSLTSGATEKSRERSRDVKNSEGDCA
T2 sequence (Q01064 whole entry): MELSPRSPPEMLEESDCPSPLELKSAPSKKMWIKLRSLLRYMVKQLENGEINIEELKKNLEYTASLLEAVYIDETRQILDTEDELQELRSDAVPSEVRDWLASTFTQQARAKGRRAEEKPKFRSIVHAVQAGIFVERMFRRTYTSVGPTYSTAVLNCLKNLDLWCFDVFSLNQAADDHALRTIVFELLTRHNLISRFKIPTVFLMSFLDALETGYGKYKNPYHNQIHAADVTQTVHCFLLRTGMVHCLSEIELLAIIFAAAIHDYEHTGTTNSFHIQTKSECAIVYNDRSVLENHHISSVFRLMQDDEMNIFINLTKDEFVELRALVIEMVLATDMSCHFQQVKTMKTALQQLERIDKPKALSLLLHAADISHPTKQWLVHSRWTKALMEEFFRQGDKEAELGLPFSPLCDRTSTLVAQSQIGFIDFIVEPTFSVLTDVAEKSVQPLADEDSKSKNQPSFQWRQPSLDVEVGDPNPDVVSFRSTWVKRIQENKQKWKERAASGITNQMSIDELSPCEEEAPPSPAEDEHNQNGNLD

Cc1cnccc1-c1ncc2c(=O)[nH]c(C3CN(Cc4ncccn4)CC3C)nn12 (single isomer, unassigned; (+)) [(+)-2-((3,4-trans)-4-methyl-1-(pyrimidin-2-ylmethyl)pyrrolidin-3-yl)-7-(3-methylpyridin-4-yl)imidazo[5,1-f][1,2,4]triazin-4(3H)-one]
IC50 [1, 4]: < 1000 nM
PDE1B selectivity (versus PDE9A2) ([2]; ratio of IC50 values PDE1B / PDE9A2, value greater than 1 indicates greater selectivity for PDE9A2): 63
PDE1A selectivity (versus PDE9A2) ([3]; ratio of IC50 values PDE1A / PDE9A2, value greater than 1 indicates greater selectivity for PDE9A2): 85

CC1CN(Cc2nc3ccccn3n2)CC1c1nn2c(C3CCOCC3)ncc2c(=O)[nH]1 (single isomer, unassigned; (+)) [(+)-2-((3,4-trans)-1-([1,2,4]triazolo[1,5-a]pyridin-2-ylmethyl)-4-methylpyrrolidin-3-yl)-7-(tetrahydro-2H-pyran-4-yl)imidazo[5,1-f][1,2,4]triazin-4(3H)-one]
IC50 [1, 5]: < 1000 nM
PDE1B selectivity (versus PDE9A2) [2, 6]: 457
PDE1A selectivity (versus PDE9A2) [3, 6]: 563

CC1CN(Cc2ccc[nH]c2=O)CC1c1nn2c(C3CCOCC3)ncc2c(=O)[nH]1 (single isomer, unassigned; (+)) [(+)-2-((3,4-trans)-4-methyl-1-((2-oxo-1,2-dihydropyridin-3-yl)methyl)pyrrolidin-3-yl)-7-(tetrahydro-2H-pyran-4-yl)imidazo[5,1-f][1,2,4]triazin-4(3H)-one]
IC50 [1, 5]: < 1000 nM
PDE1B selectivity (versus PDE9A2) [2, 6]: 940
PDE1A selectivity (versus PDE9A2) [3, 6]: 424

CC1CN(Cc2cn3ccccc3n2)CC1c1nn2c(C3CCC(F)(F)CC3)ncc2c(=O)[nH]1 (single isomer, unassigned; (+)) [(+)-7-(4,4-difluorocyclohexyl)-2-((3,4-trans)-1-(imidazo[1,2-a]pyridin-2-ylmethyl)-4-methylpyrrolidin-3-yl)imidazo[5,1-f][1,2,4]triazin-4(3H)-one]
IC50 ([1]; IC50 band, 4.0 μM cGMP substrate, 1 hour at R.T.): < 1000 nM
PDE1B selectivity (versus PDE9A2) ([2]; ratio of IC50 values PDE1B vs PDE9A2, value greater than 1 indicates greater selectivity for PDE9A2): 1659
PDE1A selectivity (versus PDE9A2) ([3]; ratio of IC50 values PDE1A vs PDE9A2, value greater than 1 indicates greater selectivity for PDE9A2): 405

CC1CN(Cc2ncccn2)CC1c1nn2c(C3CCCC3)ncc2c(=O)[nH]1 (single isomer, unassigned; (+)) [(+)-7-cyclopentyl-2-((3,4-trans)-4-methyl-1-(pyrimidin-2-ylmethyl)pyrrolidin-3-yl)imidazo[5,1-f][1,2,4]triazin-4(3H)-one]
IC50 ([1]; read-out: Band (PDE9A2 IC50)): < 1000 nM
PDE1B selectivity (versus PDE9A2) ([2]; ratio of IC50 values, PDE1B versus PDE9A2, value greater than 1 indicates greater selectivity for PDE9A2): 45
PDE1A selectivity (versus PDE9A2) ([3]; ratio of IC50 values, PDE1A versus PDE9A2, value greater than 1 indicates greater selectivity for PDE9A2): 60

CC1CN(Cc2ncccc2C(F)(F)F)CC1c1nn2c(C3CCOCC3)ncc2c(=O)[nH]1 (single isomer, unassigned; (+)) [(+)-2-((3,4-trans)-4-methyl-1-((3-(trifluoromethyl)pyridin-2-yl)methyl)pyrrolidin-3-yl)-7-(tetrahydro-2H-pyran-4-yl)imidazo[5,1-f][1,2,4]triazin-4(3H)-one]
IC50 ([1]; Table 3, 4.0 μM cGMP substrate, 1 hour at R.T., read-out: Band (PDE9A2 IC50)): < 1000 nM
PDE1B selectivity (versus PDE9A2) ([2]; ratio of IC50 values, PDE1B versus PDE9A2, value greater than 1 = greater selectivity for PDE9A2): 58
PDE1A selectivity (versus PDE9A2) ([3]; ratio of IC50 values, PDE1A versus PDE9A2, value greater than 1 = greater selectivity for PDE9A2): 123

COc1ncc(CN2CC(C)C(c3nn4c(C5CCOCC5)ncc4c(=O)[nH]3)C2)cn1 (single isomer, unassigned; (+)) [(+)-2-((3,4-trans)-1-((2-methoxypyrimidin-5-yl)methyl)-4-methylpyrrolidin-3-yl)-7-(tetrahydro-2H-pyran-4-yl)imidazo[5,1-f][1,2,4]triazin-4(3H)-one]
IC50 [1, 4]: < 1000 nM
PDE1B selectivity (versus PDE9A2) ([2]; ratio of IC50 values PDE1B / PDE9A2, value greater than 1 = greater selectivity for PDE9A2): 3650
PDE1A selectivity (versus PDE9A2) ([3]; ratio of IC50 values PDE1A / PDE9A2, value greater than 1 = greater selectivity for PDE9A2): 1210

CC1CN(Cc2ccccc2F)CC1c1nn2c(C3CCOCC3)ncc2c(=O)[nH]1 (single isomer, unassigned; (+)) [(+)-2-((3,4-trans)-1-(2-fluorobenzyl)-4-methylpyrrolidin-3-yl)-7-(tetrahydro-2H-pyran-4-yl)imidazo[5,1-f][1,2,4]triazin-4(3H)-one]
IC50 [1, 5]: < 1000 nM
PDE1B selectivity (versus PDE9A2) [2, 6]: 442
PDE1A selectivity (versus PDE9A2) [3, 6]: 300

CC1CN(Cc2cn3cccnc3n2)CC1c1nn2c(C3CCOCC3)ncc2c(=O)[nH]1 (single isomer, unassigned; (-)) [(−)-2-((3,4-trans)-1-(imidazo[1,2-a]pyrimidin-2-ylmethyl)-4-methylpyrrolidin-3-yl)-7-(tetrahydro-2H-pyran-4-yl)imidazo[5,1-f][1,2,4]triazin-4(3H)-one]
IC50 [1, 5]: < 1000 nM
PDE1B selectivity (versus PDE9A2) [2, 6]: 591
PDE1A selectivity (versus PDE9A2) [3, 6]: 188
